Results: PMC9811465, “Structure-Based Discovery of Small-Molecule Inhibitors of the Autocatalytic Proliferation of α-Synuclein Aggregates” (Molecular Pharmaceutics, 2022)

Legend:
α-synuclein = biological target: T1, α-synuclein (Homo sapiens, UniProt P37840); test: ThT seeded aggregation kinetics; half-time increased […] times at […] molar equivalents; weakest, not significant at […] equivalents; assay type: biochemical
T1 construct: gene SNCA

α-synuclein (fibrils) = biological target: T2, α-synuclein (fibrils) (Homo sapiens, UniProt P37840); test: fluorescence polarization with fibrils (Kd in monomer equivalents); supported by mass spectrometry pull-down, fluorescence colocalization and aggregation kinetics; assay type: binding
T2 construct: gene SNCA; recombinant human α-synuclein, preformed amyloid fibrils

Compound | ThT seeded aggregation kinetics; half-time increased 1.5 times at 10 molar equiv (α-synuclein) | Kd (α-synuclein (fibrils)) [µM]
Cc1nc2ccccn2c1C(=O)NCc1nccnc1-c1ccco1 [A, compound A] | 1.5 fold increase in half-time (t1/2) | 
Cc1c(OCc2nnn[nH]2)ccc2c1oc(=O)c1ccccc12 [C, compound C] |  | ~4
